We go through 16 compounds from patent US20150259331A1, “PROTOZOAN PARASITE GROWTH INHIBITORS” (Northeastern University, priority 2014, published 2015).

The fraction unbound is free concentration divided by total concentration. A lower fraction unbound goes with little free substance. What is called Solubility is the dissolved amount per volume that the medium holds.

SMILES strings stand for the structures. Like-named read-outs stand apart in the source and are kept apart here.

Data set [1] can be described thus: Human liver microsomes CLint. In general terms: Microsomes from liver hold many membrane-bound enzymes, among them those of drug oxidation.
A short description of data set [2]: Protein binding (Table 14). The conditions noted are these: plasma.
Data set [3] in a line: Male rat hepatocytes CLint.
The next data set concerns L. major amastigote. Put plainly: L. major amastigote assay. It is filed as cell-based. The conditions noted are these: Leishmania major.
The next data set concerns T. cruzi. Put plainly: T. cruzi growth inhibition. The data set is classed as cell-based, Trypanosoma cruzi. The conditions noted are these: Trypanosoma cruzi.
The next data set concerns HepG2 cells. Put plainly: HepG2 cell toxicity (MTT) assay. The data set is classed as cell-based. The following applies: Table 13; read-out: HepG2 TC50.
The subject of the next data set is L. major promastigote. Put plainly: L. major promastigote assay. The data set is classed as cell-based. The conditions noted are these: Leishmania major.
Another data set concerns P. fal. The experiment in a line: P. fal assay of Table 13 (strain not given). The data set is classed as cell-based, P. falciparum. The conditions noted are these: Plasmodium falciparum.
Data set [4] deals with T. brucei brucei Lister 427. Put plainly: Trypanosome replication assay. The data set is classed as cell-based, Trypanosoma brucei brucei. The following applies: Trypanosoma brucei; for EC50: 48 h, values ±7%; for inhibition at 5 µM: read-out: Tbb % inh at 5 μM.
In data set [5] the test system is endocytosis of transferrin. The experiment in a line: Receptor-mediated endocytosis of transferrin in the trypanosome. The data set is classed as cell-based, T. brucei.
A short description of the next data set: in vitro. The conditions noted are these: male, BALB/c, mouse. How it is done:
Mice plasma (BALB/c mice, male—pool of 3 animals) was collected in-house using K2EDTA as anticoagulant. […] Glipizide (Cat #50402G) was purchased from Apin chemicals, Abingdon, Oxon. Albendazole (Cat #A4673) was purchased from Sigma. Phosphate buffered saline pH 7.4 (0.1 M sodium phosphate and 0.15 M sodium chloride) and RED device inserts were procured from Thermo Scientific, Meridian Rd., Rockford, Ill.
Further 1 mM stock was diluted 200-fold in mice plasma to prepare a concentration of 5 μM. The final DMSO concentration in plasma was 0.5%.
Rapid equilibrium dialysis was performed with a rapid equilibrium dialysis (RED) device containing dialysis membrane with a molecular weight cut-off of 8,000 Daltons. Each dialysis insert contains two chambers. The red chamber is for plasma while the white chamber is for buffer. A 200 μL aliquot of warfarin or test compound at 5 μM (triplicates) was separately added to the plasma chamber and 350 μL of phosphate buffer saline (pH 7.4) was added to the buffer chamber of the inserts. After sealing the RED device with an adhesive film, dialysis was performed at 37° C. with shaking at 100 rpm for 4 hours as per manufacturer's recommendation.
Recovery and stability: A 50 μL aliquot of warfarin or test compound was added to four 0.5 mL microfuse tubes. Two aliquots were frozen immediately (0 minute sample). The other two aliquots were incubated at 37° C. for 4 hours along with the RED device.
Following dialysis, an aliquot of 50 μL was removed from each well (both plasma and buffer side) and diluted with equal volume of opposite matrix (dialyzed with the other matrix) to nullify the matrix effect. Similarly, 50 μL of buffer was added to recovery and stability samples. An aliquot of 100 μL was submitted for LC-MS/MS analysis.
A 25 μL aliquot of warfarin and test compounds were crashed with 100 μL of acetonitrile containing internal standard (glipizide for warfarin and test compound) and vortexed for 5 minutes. The samples were centrifuged at 15,000 rpm at 4° C. for 10 min and 100 μL of supernatant was submitted for LCMS/MS analysis. Samples were monitored for parent compound in MRM mode using LC-MS/MS.

A short description of data set [6]: Thermodynamic aqueous solubility. The data set is classed as physicochemical.
Data set [7] is described as follows: HepG2 cell toxicity (MTT) assay. The data set is classed as cell-based. The conditions noted are these: human, HepG2 cells; Table 13; read-out: HepG2 TC50.
Data set [8] has as its system T. brucei brucei Lister 427. The following applies: published activities of HAT treatments and SCYX-7158; read-out: Tbb EC50; cited from earlier work.
Setting [9] is: concentration giving 50% inhibition of growth of T brucei brucei Lister 427 cells, read-out: Tbb EC50.

On to `CN1CCN(S(=O)(=O)c2ccc(-c3ccc4c(Nc5ccc(OCc6cccc(F)c6)c(Cl)c5)ccnc4c3)cc2)CC1` [NEU-961, N-(3-Chloro-4-((3-fluorobenzyl)oxy)phenyl)-7-(4-((4-methylpiperazin-1-yl)sulfonyl)phenyl)quinolin-4-amine], for which, in [1], the “Human liver microsomes median CLint” value was 142.7 µL/min/mg. This compound returned an unbound share (fraction unbound) in [2] below 0.01. Moreover, the “Male rat hepatocytes median CLint” value in data set [3] is on record as 20.24 μl/min/1E6 cells. The EC50 was determined as 1600 nM in the data set with L. major amastigote; 730 nM with T. cruzi; 1000 nM in the data set on L. major promastigote; 19 nM in the data set on P. fal; 79 nM in data set [4] (setting [9]). Moreover, the CC50 with HepG2 cells is above 4000 nM.
Consider `CS(=O)(=O)CCNCc1ccc(-c2ccc3ncnc(Nc4ccc(OCc5cccc(F)c5)c(Cl)c4)c3c2)o1` [Compound 1, lapatinib, reference compound], for which the “effect on endocytosis of transferrin” value in data set [5] is listed as “inhibited endocytosis of transferrin”.
`CC(=O)CC(c1ccccc1)c1c(O)c2ccccc2oc1=O` (centres unmarked) [Warfarin] yielded a recovery at 4 h, 5 μM in the data set “in vitro” (pH 7.4) of 95%. Moreover, the “% compound remaining at 4 h” value in the data set “in vitro” (plasma, 4 h, 5 μM) is 100%. Further, the fraction unbound at 4 h, 5 μM in the data set “in vitro” (plasma, pH 7.4, % Bound Mean (SD)) was 0.156; in the data set “in vitro” (plasma, pH 7.4, % Bound R1), 0.051; in the data set “in vitro” (plasma, pH 7.4, % Bound R2), 0.058; in “in vitro” (plasma, pH 7.4, % Bound R3) it was 0.059.
Take `CN1CCCN(S(=O)(=O)c2ccc(-c3ccc4c(Nc5ccc(OCc6cccc(F)c6)c(Cl)c5)cnnc4c3)cc2)CC1` [NEU-1017, N-(3-Chloro-4-((3-fluorobenzyl)oxy)phenyl)-7-(4-((4-methyl-1,4-diazepan-1-yl)sulfonyl)phenyl)cinnolin-4-amine]: in data set [1], the “Human liver microsomes median CLint” value came to 99.32 µL/min/mg. The compound also displayed a fraction unbound in data set [2] below 0.01. The “Male rat hepatocytes median CLint” value in data set [3] is recorded as 36.72 μl/min/1E6 cells. For the same compound, in data set [6], the Solubility was below 1 µM. In addition, the EC50 in the data set with L. major amastigote was determined as 240 nM; with T. cruzi, 49000 nM; in the data set on L. major promastigote, 6400 nM; in the data set on P. fal it was 3 nM; in [4] (setting [9]), 210 nM. The CC50 with HepG2 cells is 15000 nM.
As for `O=S(=O)(c1ccc(-c2ccc3ccnc(Nc4ccc(OCc5ccccc5)c(Cl)c4)c3c2)cc1)N1CCOCC1` [NEU-949, N-(4-(Benzyloxy)-3-chlorophenyl)-7-(4-(morpholinosulfonyl)phenyl)isoquinolin-1-amine], the EC50 in the data set with L. major amastigote was above 15000 nM; in the data set on T. cruzi, above 50000 nM; with L. major promastigote, above 15000 nM; in the data set on P. fal, 870 nM; in data set [4] (setting [9]), above 2500 nM. The CC50 at 48 h in [7] is above 15000 nM.
For the compound `Fc1cccc(COc2ccc(Nc3nccc4ccc(-c5cccc(N6CCOCC6)c5)cc34)cc2Cl)c1` [NEU-947, N-(3-Chloro-4-((3-fluorobenzyl)oxy)phenyl)-7-(3-morpholinophenyl)isoquinolin-1-amine], the EC50 in the data set with L. major amastigote is 6000 nM; in the data set with T. cruzi it was above 50000 nM; in the data set on L. major promastigote, above 15000 nM; in the data set with P. fal, 2500 nM. Besides, in [7], the CC50 at 48 h is above 15000 nM. Besides, the inhibition at 5 µM in data set [4] came out at 0.1%.
`Nc1nc(N)nc(Nc2ccc([As]3SCC(CO)S3)cc2)n1` (centres unmarked) [melarsoprol]: the EC50 in data set [8] was 6.3 nM.
With `N=C(N)c1ccc(OCCCCCOc2ccc(C(=N)N)cc2)cc1` [pentamidine], in [8], the EC50 was 3.5 nM.
Regarding `Fc1cccc(COc2ccc(Nc3nccc4cc(-c5cccc(N6CCOCC6)c5)ccc34)cc2Cl)c1` [NEU-946, N-(3-Chloro-4-((3-fluorobenzyl)oxy)phenyl)-6-(3-morpholinophenyl)isoquinolin-1-amine], the EC50 in the data set on L. major amastigote was 2200 nM; in the data set with T. cruzi, above 50000 nM; in the data set with L. major promastigote it was above 15000 nM; in the data set with P. fal, 2800 nM. Also, the CC50 at 48 h in [7] is above 15000 nM. Besides, the inhibition at 5 µM in data set [4] worked out at 12%.
Regarding `O=S(=O)(c1ccc(-c2ccc3c(Nc4ccc(OCc5ccccc5)c(Cl)c4)nccc3c2)cc1)N1CCOCC1` [NEU-948, N-(4-(Benzyloxy)-3-chlorophenyl)-6-(4-(morpholinosulfonyl)phenyl)isoquinolin-1-amine], the EC50 was above 3000 nM in the data set on L. major amastigote; above 50000 nM with T. cruzi; above 15000 nM with L. major promastigote; 3400 nM in the data set with P. fal; 91 nM in [4] (setting [9]). For the same compound, the CC50 in the data set with HepG2 cells is above 5000 nM.
Turning to `CN1CCN(S(=O)(=O)c2ccc(-c3ccc4nccc(Nc5ccc(OCc6cccc(F)c6)c(Cl)c5)c4c3)cc2)CC1` [NEU-960, N-(3-Chloro-4-((3-fluorobenzyl)oxy)phenyl)-6-(4-((4-methylpiperazin-1-yl)sulfonyl)phenyl)quinolin-4-amine], the EC50 was found to be 2000 nM with L. major amastigote; 5300 nM in the data set on T. cruzi; 600 nM with L. major promastigote; 16000 nM in the data set on P. fal; 460 nM in data set [4] (setting [9]). For the same compound, the CC50 with HepG2 cells was 6400 nM.
On to `CN1CCCN(S(=O)(=O)c2ccc(-c3ccc4c(Nc5ccc(OCc6cccc(F)c6)c(Cl)c5)nncc4c3)cc2)CC1` [NEU-1042, N-(3-Chloro-4-((3-fluorobenzyl)oxy)phenyl)-6-(4-((4-methyl-1,4-diazepan-1-yl)sulfonyl)phenyl)phthalazin-1-amine, Formic Acid], for which the EC50 with L. major amastigote worked out at 1100 nM; in the data set on T. cruzi, 1300 nM; in the data set on L. major promastigote it was 410 nM; in the data set on P. fal, 29 nM; in data set [4] (read-out: Tbb EC50, concentration giving 50% inhibition of growth of T brucei brucei Lister 427 cells), 510 nM. For the same compound, the CC50 in the data set on HepG2 cells came to 3400 nM.
For `CC1(C)OB(O)c2cc(NC(=O)c3ccc(F)cc3C(F)(F)F)ccc21` [SCYX-7158], the EC50 in data set [8] is 794 nM.
With `O=S(=O)(c1ccc(-c2ccc3c(Nc4ccc(OCc5ccccc5)c(Cl)c4)nncc3c2)cc1)N1CCOCC1` [NEU-1039, N-(4-(Benzyloxy)-3-chlorophenyl)-6-(4-(morpholinosulfonyl)phenyl)phthalazin-1-amine], the EC50 in the data set with L. major amastigote is above 15000 nM; in the data set on T. cruzi, above 50000 nM; in the data set with L. major promastigote, above 15000 nM; in the data set with P. fal, 110 nM; in data set [4] (setting [9]), 990 nM. Further, the CC50 with HepG2 cells is above 15000 nM.
As for `O=S(=O)(c1ccc(-c2ccc3nncc(Nc4ccc(OCc5ccccc5)c(Cl)c4)c3c2)cc1)N1CCOCC1` [NEU-1002, N-(4-(Benzyloxy)-3-chlorophenyl)-6-(4-(morpholinosulfonyl)phenyl)cinnolin-4-amine], the EC50 was above 15000 nM with L. major amastigote; above 50000 nM in the data set with T. cruzi; above 15000 nM in the data set with L. major promastigote; 820 nM with P. fal; 1200 nM in [4] (setting [9]). In addition, in the data set with HepG2 cells, the CC50 was above 15000 nM.
On to `Fc1cccc(COc2ccc(Nc3cnnc4cc(-c5cccc(N6CCOCC6)c5)ccc34)cc2Cl)c1` [NEU-1014, N-(3-Chloro-4-((3-fluorobenzyl)oxy)phenyl)-7-(3-morpholinophenyl)cinnolin-4-amine], for which the EC50 in the data set on L. major amastigote was above 15000 nM; in the data set on T. cruzi, 45000 nM; with L. major promastigote, 9800 nM; with P. fal, 200 nM; in data set [4] (setting [9]), 890 nM. For the same compound, in the data set on HepG2 cells, the CC50 came out at 11000 nM.
